Assay in all cases: fluorescence titration
Test [1] concerns 26Tel (DNA, G4) TTAGGGTTAGGGTTAGGGTTAGGGTT
To be noted: 153 mM Na+, 2.7 mM K+, 2.5 mM Mg2+, pH 7.4, 25 °C, dye 3 μM, apparent.

In test [2] the test system is 20Src (DNA, G4) GGGCGGCGGGCTGGGCGGGG
The note with it: 2.5 mM Mg2+, pH 7.4, 25 °C, dye 3 μM, oligonucleotide to 15 μM, apparent, n.d., assumed.

Test [3] deals with 27Myc (DNA, G4) TGGGGAGGGTGGGGAGGGTGGGGAAGG
To be noted: 140 mM K+, 10 mM Na+, 2.5 mM Mg2+; PBS140KM (phosphate) pH 7.4, 25 °C; 3 μM dye; apparent.

In test [4] the test system is 22Kit (DNA, G4) AGGGAGGGCGCTGGGAGGAGGG
The note with it: 140 mM K+, 10 mM Na+, 2.5 mM Mg2+; PBS140KM (phosphate) pH 7.4, 25 °C; 3 μM dye; apparent.

Test [5] has as its system 18Ras (RNA, G4) GGGAGGGGCGGGUCUGGG
To be noted: 140 mM K+, 10 mM Na+, 2.5 mM Mg2+; PBS140KM (phosphate) pH 7.4, 25 °C; 3 μM dye; apparent.

Test [6] has as its system 22AG (DNA, G4) AGGGTTAGGGTTAGGGTTAGGG
To be noted: 2.5 mM Mg2+, 3 μM dye, apparent.

Test [7] concerns 18Ras (RNA, G4) GGGAGGGGCGGGUCUGGG
The note with it: 2.5 mM Mg2+, pH 7.4, 25 °C, dye 3 μM, apparent.

For test [8], the system named is dsDNA (DNA, duplex) GGGTTACTACGAACTGG/CCAGTTCGTAGTAACCC
The note with it: 153 mM Na+, 2.7 mM K+, 2.5 mM Mg2+, pH 7.4, 25 °C, dye 3 μM, apparent.

The test system of test [9] is 22Kit (DNA, G4) AGGGAGGGCGCTGGGAGGAGGG
To be noted: 153 mM Na+, 2.7 mM K+, 2.5 mM Mg2+, pH 7.4, 25 °C, dye 3 μM, apparent.

Test [10] has as its system 27Myc (DNA, G4) TGGGGAGGGTGGGGAGGGTGGGGAAGG
The note with it: 153 mM Na+, 2.7 mM K+, 2.5 mM Mg2+, pH 7.4, 25 °C, dye 3 μM, apparent.

The test system of test [11] is 26Tel (DNA, G4) TTAGGGTTAGGGTTAGGGTTAGGGTT
The note with it: 2.5 mM Mg2+, 3 μM dye, apparent.

Test [12] concerns 22AG (DNA, G4) AGGGTTAGGGTTAGGGTTAGGG
The note with it: 2.5 mM Mg2+, pH 7.4, 25 °C, dye 3 μM, apparent.

Test [13] has as its system 20Src (DNA, G4) GGGCGGCGGGCTGGGCGGGG
The note with it: 2.5 mM Mg2+, 3 μM dye, apparent.

Test [14] deals with dsDNA (DNA, duplex) GGGTTACTACGAACTGG/CCAGTTCGTAGTAACCC
To be noted: 140 mM K+, 10 mM Na+, 2.5 mM Mg2+; PBS140KM (phosphate) pH 7.4, 25 °C; 3 μM dye; apparent.

Where [15] appears, read: 153 mM Na+, 2.7 mM K+, PBS153NM.
The mark [16] stands for this setting: 140 mM K+, 10 mM Na+, PBS140KM (phosphate) pH 7.4, 25 °C.
The mark [17] stands for this setting: 153 mM Na+, 2.7 mM K+, PBS153NM (phosphate).
Where [18] appears, read: PBS153NM, oligonucleotide to 15 μM, n.d., assumed.
The mark [19] stands for this setting: 140 mM K+, 10 mM Na+, PBS140KM, oligonucleotide to 15 μM, n.d., assumed.
Where [20] appears, read: 153 mM Na+, 2.7 mM K+, PBS153NM, oligonucleotide to 15 μM, n.d., assumed.
[21] abbreviates: 153 mM Na+, 2.7 mM K+, PBS153NM (phosphate) pH 7.4, 25 °C.

`Cc1ccc2c(c1)sc(-c1ccc(N(C)C)cc1)[n+]2C`: the Kd in [1] (PBS153NM (phosphate)) was 29.5 ± 5.6 µM; in [2] (140 mM K+, 10 mM Na+, PBS140KM) it was over 40 µM; in test [2] (setting [15]) it was over 40 µM; in test [3] it was 6.9 ± 0.8 µM; in [4], 9.9 ± 1.2 µM; in test [5], 19.0 ± 2.9 µM. For the same compound, the Kd in test [6] (setting [16]) is 5.0 ± 0.5 µM; in [7] (setting [17]), 15.3 ± 1.6 µM; in [8] (setting [18]), over 40 µM; in test [9] (PBS153NM (phosphate)), 4.8 ± 0.8 µM; in [10] (PBS153NM (phosphate)), 13.5 ± 5.1 µM; in test [11] (setting [16]) it was 4.0 ± 0.4 µM.

On to `Cc1ccc2c(c1)sc(-c1ccc(N(C)C)cc1)[n+]2CCN`, for which the Kd is over 40 µM in test [1] (setting [18]); over 40 µM in [2] (140 mM K+, 10 mM Na+, PBS140KM); over 40 µM in [2] (setting [15]); 8.9 ± 3.5 µM in [4]; over 40 µM in test [12] (setting [19]); 23.6 ± 9.1 µM in test [12] (setting [17]). For the same compound, the Kd is over 40 µM in test [7] (setting [19]); over 40 µM in test [7] (setting [20]); over 40 µM in test [8] (setting [18]); over 40 µM in test [9] (setting [18]); over 40 µM in test [10] (setting [18]); 9.7 ± 5.5 µM in [11] (setting [16]).

As for `Cc1ccc2c(c1)sc(-c1ccc(N(C)C)cc1)[n+]2CCNC(=O)COCC(=O)NCCOCCOCCOCCOCCOCCOCCOCCOCCOCCOCCOCCN`, the Kd in test [1] (setting [18]) is over 40 µM; in test [2] (setting [15]), over 40 µM; in test [3], 13.4 ± 0.8 µM; in [4], 36.6 ± 4.4 µM; in test [13] (setting [16]), 20.2 ± 2.3 µM; in test [5], 15.3 ± 1.9 µM. Also, the Kd in test [12] (setting [19]) is over 40 µM; in test [12] (setting [17]) it was 20.3 ± 9.9 µM; in test [7] (setting [17]), 16.3 ± 1.8 µM; in test [8] (setting [18]), over 40 µM; in test [9] (setting [18]), over 40 µM; in test [10] (PBS153NM (phosphate)), 29.1 ± 2.5 µM. Besides, the Kd in test [11] (setting [16]) came to 23.9 ± 3.1 µM.

For `Cc1ccc2c(c1)sc(-c1ccc(N(C)C)cc1)[n+]2CCNC(=O)COCCOCCN`, the Kd in test [1] (PBS153NM (phosphate)) is 34.3 ± 4.0 µM; in test [2] (setting [15]), over 40 µM; in [3], 8.7 ± 0.7 µM; in test [4], 20.5 ± 1.4 µM; in test [13] (setting [16]) it was 38.6 ± 5.9 µM; in [5], 11.8 ± 0.6 µM. The Kd is 11.8 ± 1.4 µM in test [6] (setting [16]); over 40 µM in test [12] (setting [20]); 15.5 ± 1.7 µM in [7] (setting [17]); over 40 µM in test [8] (setting [18]); over 40 µM in test [9] (setting [18]); 10.8 ± 1.3 µM in test [10] (PBS153NM (phosphate)). For the same compound, the Kd in test [11] (setting [16]) amounted to 5.3 ± 0.4 µM.

As to `Cc1ccc2c(c1)sc(-c1ccc(N(C)C)cc1)[n+]2CCNC(=O)NCCCNCCCCNCCCN`, the Kd in test [3] was found to be 6.8 ± 0.9 µM; in test [4], 6.8 ± 0.6 µM; in test [13] (setting [16]), 18.8 ± 2.4 µM; in test [13] (setting [21]) it was 4.1 ± 0.5 µM; in [5], 12.8 ± 1.9 µM; in test [6] (setting [16]), 5.4 ± 1.0 µM. The Kd is 8.2 ± 0.8 µM in test [6] (setting [21]); 14.7 ± 3.2 µM in [7] (setting [17]); 9.4 ± 1.0 µM in [8] (PBS153NM (phosphate)); 16.0 ± 1.0 µM in [14]; 7.4 ± 3.9 µM in [9] (PBS153NM (phosphate)); 5.3 ± 0.8 µM in test [10] (PBS153NM (phosphate)). Moreover, the figures for the Kd in test [11] (setting [16]) and in test [11] (setting [21]) were 2.4 ± 0.4 µM and 4.6 ± 0.3 µM, respectively.

Regarding `Cc1ccc2c(c1)sc(-c1ccc(N(C)C)cc1)[n+]2CCO`, the Kd in test [1] (setting [18]) is over 40 µM; in [2] (140 mM K+, 10 mM Na+, PBS140KM), over 40 µM; in [2] (setting [15]), over 40 µM; in [3] it was 19.9 ± 0.9 µM; in test [4] it was 34.9 ± 6.6 µM; in test [5], 25.0 ± 3.1 µM. The Kd was 20.1 ± 1.5 µM in [6] (setting [16]); over 40 µM in [12] (setting [20]); 28.1 ± 4.0 µM in test [7] (setting [17]); over 40 µM in [8] (setting [18]); 12.3 ± 1.8 µM in test [9] (PBS153NM (phosphate)); 14.1 ± 1.5 µM in test [10] (PBS153NM (phosphate)). In addition, in test [11] (setting [16]), the Kd was found to be 11.1 ± 1.5 µM.

(Values after article PMC7663003 (2020).)
